According to patent publication US20240252677A1, “ONE-COMPONENT DELIVERY SYSTEM FOR NUCLEIC ACIDS” (The Trustees of the University of Pennsylvania, priority 2021, published 2024):

Columns and labels:
[1] = pKa measurements of individual IAJD molecules by titration; assay type: physicochemical; details: ethanol saturated with NaCl, titrated with 0.1 M aqueous HCl, titration
How it was run: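 pKa derived by half-equivalence-point analysis of a pH-meter titration curve: 0.1 M HCl added in 7.5 μL increments to a 1.5 mg/mL solution of each molecule in ethanol saturated with NaCl.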

spleen = test: In vivo mRNA delivery, IVIS imaging of organs: spleen; parameters: species or system mice; key to Organs with luminescence: spleen: strong: Strong meant the luminescence intensity in that organ was relatively high, compared to other organs; weak: Weak meant the luminescence intensity in that organ was relatively low, compared to other organs; details: for Organs with luminescence: spleen: Table 17, mice, IVIS, 4-6 h after injection, intensity relative to other organs; for Organs with luminescence: spleen (weak/strong): Table 14
Method: (§1) The exposure time was 1 min.
(§2) Tissue luminescence signal was measured on the IVIS imaging system using an exposure time of 60 seconds using medium binning (binning=8) to ensure that the signal obtained was within operative detection range. […] Bioluminescence imaging was performed as described above.
(§3) Tissue luminescence signal was measured on the IVIS imaging system using a certain exposure time (60, 30 or 15 seconds) and medium binning (binning=8) to ensure that the signal obtained was within operative detection range.

lung = test: In vivo mRNA delivery, IVIS imaging of organs: lung; parameters: species or system mice; key to Organs with luminescence: lung: strong: Strong meant the luminescence intensity in that organ was relatively high, compared to other organs; weak: Weak meant the luminescence intensity in that organ was relatively low, compared to other organs; details: for Organs with luminescence: lung: Table 17, mice, IVIS, 4-6 h after injection, intensity relative to other organs; for Organs with luminescence: lung (weak/strong): Table 14
Method: as §1, §2, §3

[2] = Dimensions (size, PDI) of DNPs co-assembled from IAJDs and Luc-mRNA by DLS; assay type: physicochemical
How it was run: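 Hydrodynamic size and PDI were read by dynamic light scattering at 23 °C, 175° backscatter, 633 nm. Particles formed by fast injection of ethanolic IAJD stock (80 mg/mL) into nucleoside-modified luciferase mRNA (stock 4.0 mg/mL) in 10 mM acetate pH 4.0, 5 s vortex.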

[3] = Table 16, DNPs from IAJD 4 mg/mL and Luc-mRNA 0.10 mg/mL by injection in acetate buffer (10 mM, pH 4.0)
[4] = Table 17, DNPs used in vivo, IAJD 4 mg/mL, Luc-mRNA 0.10 mg/mL, acetate pH 4.0
[5] = Table 15, individual IAJD molecule
[6] = Table 12, DNPs, IAJD 4 mg/mL + Luc-mRNA 0.10 mg/mL, acetate buffer 10 mM pH 4.0
[7] = Table 13, DNPs, IAJD 4 mg/mL + Luc-mRNA 0.10 mg/mL, acetate buffer pH 4.0
[8] = Table 14, DNPs, IAJD 4 mg/mL + Luc-mRNA 0.10 mg/mL, acetate buffer pH 4.0

| pKa ([1]; individual IAJD molecules) | PDI [2, 3] | Size (d, nm) [2, 3] [nm] | PDI [2, 4] | Size (d, nm) [2, 4] [nm] | pKa [1, 5] | PDI [2, 6] | Size (d, nm) [2, 6] [nm] | PDI [2, 7] | Size (d, nm) [2, 7] [nm] | PDI [2, 8] | Size (d, nm) [2, 8] [nm] | SMILES | Organs with luminescence: spleen (spleen) | Organs with luminescence: lung (lung) | Organs with luminescence: spleen (weak/strong) (spleen; imaging 6 h after injection) | Organs with luminescence: lung (weak/strong) (lung; imaging 6 h after injection) | Organs with luminescence: spleen (weak/strong) (spleen; imaging 5 h after injection) | Organs with luminescence: lung (weak/strong) (lung; imaging 5 h after injection) |
| --- | --- | --- | --- | --- | --- | --- | --- | --- | --- | --- | --- | --- | --- | --- | --- | --- | --- | --- |
| 6.51 | 0.432 | 236 | 0.432 | 236 |  |  |  |  |  |  |  | CCCCCCCCCCCCCCCOc1cc(COC(=O)CCCN2CCN(CCO)CC2)cc(OCCCCCCCCCCCC)c1 [IAJD 144, 3-(Dodecyloxy)-5-(pentadecyloxy)benzyl 4-(4-(2-hydroxyethyl)piperazin-1-yl)butanoate] | spleen (strong) | Lung (weak), |  |  |  |  |
|  |  |  | 0.234 | 91 | 6.24 | 0.234 | 91 | 0.234 | 91 | 0.234 | 91 | CCCCCCCCCCCCCCCCOc1cc(COC(=O)CCCN2CCN(C)CC2)cc(OCCCCCCCCCCC)c1 [IAJD 86, 3-(Hexadecyloxy)-5-(undecyloxy)benzyl 4-(4-methylpiperazin-1-yl)butanoate] | spleen (weak) | Lung (weak), |  |  | spleen (weak) | Lung (weak), |
|  |  |  |  |  | 6.45 | 0.467 | 149 | 0.467 | 149 | 0.467 | 149 | CCCCCCCCOc1cc(COC(=O)CCCN2CCN(CCO)CC2)cc(OCCCCCCCC)c1 [IAJD 89] |  |  | spleen (strong) | Lung (weak), |  |  |
| 5.91 | 0.301 | 139 | 0.301 | 139 |  |  |  |  |  |  |  | CCCCCCCCCCCCCCCCOc1cc(COC(=O)CCCN2CCN(C)CC2)cc(OCCCCCCCCCCCCC)c1 [IAJD 173, 3-(Hexadecyloxy)-5-(tridecyloxy)benzyl 4-(4-methylpiperazin-1-yl)butanoate] | spleen (weak) | Lung (weak), |  |  |  |  |
|  |  |  |  |  | 6.23 | 0.275 | 88 | 0.275 | 88 | 0.275 | 88 | CCCCC(CC)COc1ccc(COC(=O)CCCN2CCN(C)CC2)cc1OCC(CC)CCCC (stereo not drawn) [IAJD 103, 3,4-Bis((2-ethylhexyl)oxy)benzyl 4-(4-methylpiperazin-1-yl)butanoate] |  |  | spleen (weak) | Lung (strong), |  |  |
|  |  |  | 0.451 | 237 | 6.38 | 0.451 | 237 | 0.451 | 237 | 0.451 | 237 | CCCCCCCCCCCCOc1cc(COC(=O)CCCN2CCN(CCO)CC2)cc(OCCCCCCCCCCCC)c1 [IAJD 71, 3,5-Bis(dodecyloxy)benzyl 4-(4-(2-hydroxyethyl)piperazin-1-yl)butanoate] | spleen (strong) | Lung (weak), |  |  | spleen (strong) | Lung (weak), |
| 6.56 | 0.313 | 158 | 0.313 | 158 |  |  |  |  |  |  |  | CCCCCCCCCCCCCCCOc1cc(COC(=O)CCCN2CCN(C)CC2)cc(OCCCCCCCCCC)c1 [IAJD 141, 3-(Decyloxy)-5-(pentadecyloxy)benzyl 4-(4-methylpiperazin-1-yl)butanoate] | spleen (strong) | Lung (weak), |  |  |  |  |
|  |  |  |  |  | 6.46 | 1.000 | 629 | 1.000 | 629 | 1.000 | 629 | CCCCCCCCCCCCOc1ccc(COC(=O)CCCN2CCN(C)CC2)cc1OCCCCCCCCCCCC [IAJD 78, 3,4-Bis(dodecyloxy)benzyl 4-(4-methylpiperazin-1-yl)butanoate] |  |  |  |  | spleen (weak) | Lung (strong), |
|  |  |  |  |  | 6.32 | 0.402 | 139 | 0.402 | 139 | 0.402 | 139 | CCCCC(CC)COc1cc(COC(=O)CCCN2CCN(C)CC2)cc(OCC(CC)CCCC)c1OCC(CC)CCCC (stereo not drawn) [IAJD 96, 3,4,5-Tris((2-ethylhexyl)oxy)benzyl 4-(4-methylpiperazin-1-yl)butanoate] |  |  |  |  | spleen (strong) | Lung (weak), |

More lines, now with the values behind:

| SMILES | pKa ([1]; individual IAJD molecules) | PDI [2, 3] | Size (d, nm) [2, 3] [nm] | PDI [2, 4] | Size (d, nm) [2, 4] [nm] | pKa [1, 5] | PDI [2, 6] | Size (d, nm) [2, 6] [nm] | PDI [2, 7] | Size (d, nm) [2, 7] [nm] | PDI [2, 8] | Size (d, nm) [2, 8] [nm] | Organs with luminescence: spleen (spleen) | Organs with luminescence: lung (lung) | Organs with luminescence: spleen (weak/strong) (spleen; imaging 6 h after injection) | Organs with luminescence: lung (weak/strong) (lung; imaging 6 h after injection) | Organs with luminescence: spleen (weak/strong) (spleen; imaging 5 h after injection) | Organs with luminescence: lung (weak/strong) (lung; imaging 5 h after injection) |
| --- | --- | --- | --- | --- | --- | --- | --- | --- | --- | --- | --- | --- | --- | --- | --- | --- | --- | --- |
| CCCCCCCCCCCCCCCCCCOc1cc(COC(=O)CCCN2CCN(CCO)CC2)cc(OCCCCCCCCCCC)c1 [IAJD 128, 3-(Octadecyloxy)-5-(undecyloxy)benzyl 4-(4-(2-hydroxyethyl)piperazin-1-yl)butanoate] | 6.68 | 0.381 | 291 | 0.381 | 291 |  |  |  |  |  |  |  | spleen (strong) | Lung (weak), |  |  |  |  |
| CCCCCCCCOc1cc(COC(=O)CCCN2CCN(C)CC2)cc(OCCCCCCCC)c1 [IAJD 88, 3,5-Bis(octyloxy)benzyl 4-(4-methylpiperazin-1-yl)butanoate] |  |  |  |  |  | 6.28 | 0.342 | 100 | 0.342 | 100 | 0.342 | 100 |  |  | spleen (strong) | Lung (weak), |  |  |
| CCCCCCCCCCCOc1cc(COC(=O)c2cc(OCCOCCOCCCC(=O)CCCN3CCCCC3)c(OCCOCCOCCOCc3ccccc3)c(OCCOCCOCCOC(=O)CCCN3CCCCC3)c2)cc(OCC(CC)CCCC)c1 (stereo not drawn) [IAJD 155] | 7.4 | 0.279 | 83 | 0.279 | 83 |  |  |  |  |  |  |  | spleen (weak) | Lung (strong), |  |  |  |  |
| CCCCCCCCCCCCCCCCCOc1cc(COC(=O)CCCN2CCN(CCO)CC2)cc(OCCCCCCCCCCC)c1 [IAJD 127, 3-(Heptadecyloxy)-5-(undecyloxy)benzyl 4-(4-(2-hydroxyethyl)piperazin-1-yl)butanoate] | 6.52 | 0.270 | 276 | 0.270 | 276 |  |  |  |  |  |  |  | spleen (strong) | Lung (weak), |  |  |  |  |
| CCCCCCCCCCCCCCCOc1cc(COC(=O)CCCN2CCN(CCO)CC2)cc(OCCCCCCCCCCCCC)c1 [IAJD 146, 3-(Pentadecyloxy)-5-(tridecyloxy)benzyl 4-(4-(2-hydroxyethyl)piperazin-1-yl)butanoate] | 6.59 | 0.276 | 231 | 0.276 | 231 |  |  |  |  |  |  |  | spleen (strong) | Lung (strong), |  |  |  |  |
| CCCCCCCCCCCCCCCOc1cc(COC(=O)CCCN2CCN(C)CC2)cc(OCCCCCCCCCCC)c1 [IAJD 118, 3-(Pentadecyloxy)-5-(undecyloxy)benzyl 4-(4-methylpiperazin-1-yl)butanoate] | 6.33 | 0.278 | 104 | 0.278 | 104 |  |  |  |  |  |  |  | spleen (strong) | Lung (weak), |  |  |  |  |
| CCCCCCCCCCCCCCCOc1cc(COC(=O)CCCN2CCN(CCO)CC2)cc(OCC(CC)CCCC)c1 (stereo not drawn) [IAJD 136, 3-((2-Ethylhexyl)oxy)-5-(pentadecyloxy)benzyl 4-(4-(2-hydroxyethyl)piperazin-1-yl)butanoate] | 6.5 | 0.307 | 149 | 0.307 | 149 |  |  |  |  |  |  |  | spleen (strong) | Lung (weak), |  |  |  |  |
| CCCCCCCCCCCCCCOc1cc(COC(=O)CCCN2CCN(C)CC2)cc(OCCCCCCCCCCCCC)c1 [IAJD 171, 3-(Tetradecyloxy)-5-(tridecyloxy)benzyl 4-(4-methylpiperazin-1-yl)butanoate] | 6.16 | 0.268 | 174 | 0.268 | 174 |  |  |  |  |  |  |  | spleen (strong) | Lung (weak), |  |  |  |  |
